For series [1] the following is noted: human, in vivo; cited from earlier work.
Series [2] relates to C57BL/6J mice. Put plainly: Induction of mechanical allodynia and general observations after intraplantar oxaliplatin or cisplatin. Conditions: 40 µg/paw i.pl.
Series [3] concerns mechanical and cold allodynia. The note with it: cited from earlier work.
Series [4] concerns nerve injury-induced hyperalgesia in mice. The note with it: mouse, in vivo, sc; cited from earlier work.
For series [5] the following is noted: to oxalate and dichloro 1,2-diaminocyclohexyl-platinum complex; ref [48]; cited from earlier work. The text has this:
Although both oxaliplatin and cisplatin are platinum based antineoplastic drugs, and both act by DNA alkylation, they differ markedly in their ability to elicit pain syndromes. […] The most distinctive feature of oxaliplatin is ...

Series [6] relates to C57BL/6J mice. The note with it: mouse, in vivo.

Like-named read-outs stand apart in the source and are kept apart here.

In the case of `CSCC[C@@H]1NC(=O)[C@H](CC(C)C)NC(=O)[C@H](CCCNC(=N)N)NC(=O)[C@H](CO)NC(=O)[C@@H]2CSSC[C@@H]3NC(=O)[C@H](CO)NC(=O)CNC(=O)[C@H]([C@@H](C)O)NC(=O)[C@H](CSSC[C@H](N)C(=O)N[C@@H](CCCCN)C(=O)NCC(=O)N[C@@H](CCCCN)C(=O)NCC(=O)N[C@@H](C)C(=O)N[C@@H](CCCCN)C(=O)N2)NC(=O)[C@H](CSSC[C@@H](C(N)=O)NC(=O)[C@H](CCCCN)NC(=O)CNC(=O)[C@H](CO)NC(=O)[C@H](CCCNC(=N)N)NC3=O)NC(=O)[C@H](CC(=O)O)NC(=O)[C@H](Cc2ccc(O)cc2)NC1=O` [MVIIA], the “Dose limiting side effects” value in series [1] is “dose limiting side effects including dizziness, nystagmus, sedation, blurred vision, and orthostatic hypotension”.

`N.N.[Cl][Pt][Cl]` [cisplatin]: the “Adverse signs after platinum drug injection” value in series [2] was “No sign of adverse effects including, licking, shaking, or lameness of the injected paws was observed”. In addition, the “Mechanical PWT after cisplatin” value in series [2] (right hind paw, 24 h after injection, mean ± SEM, n = 18, naïve 3.3 ± 0.1 g, p < 0.0001) was 1.9 ± 0.1 g. Also, in series [3] (ref [45],[46],[47]), the “Type of allodynia caused” value is recorded as “only evokes mechanical allodynia”.

Turning to `COC(=O)C1=C(C)NC(C)=C(C(=O)OC)C1c1ccccc1[N+](=O)[O-]` [nifedipine], in series [4], the “Effect on nerve injury-induced hyperalgesia” value is “ineffective”.

With `O=C1[O][Pt]2([NH][C@@H]3CCCC[C@H]3[NH]2)[O]C1=O` [oxaliplatin], in series [5], the “Non-enzymatic transformation” value is on record as “fast, non-enzymatic transformation”. Further, the “Type of allodynia caused” value in series [3] (in vivo) was “causes both mechanical and cold allodynia”. Moreover, in series [6], the “Adverse signs after platinum drug injection” value was “maintained healthy appearance and body weight with no sign of licking, shaking, or lameness of the injected paw”; the “Mechanical PWT after oxaliplatin” value was found to be 1.4 ± 0.1 g.
